# Test results reported in patent US20230190754A1, “Therapeutic combinations for the treatment of Progressive Fibrosing interstitial lung diseases” (Boehringer Ingelheim International GmbH, priority 2021, published 2023).
# Marks after values point to notes of the source that are not given here.
# Tested on: IPF patients
# Experiment: Phase II clinical trial in IPF patients: Treatment Emergent Adverse Events (safety/tolerability), up to 13 weeks
# Details: 18 mg b.i.d.
# [1] = AF-group (antifibrotic background)
# [2] = AF-group (antifibrotic background), listed as Compound of Formula III
# [3] = AF-group (antifibrotic background), listed as active agent
# [4] = AF-group, nintedanib background medication sub-group
# [5] = AF-group, nintedanib background
# [6] = AF-group, nintedanib background, listed as Compound of Formula III
# [7] = AF-group, nintedanib background, listed as active agent
# [8] = AF-group, nintedanib background, listed as compound of formula III
# [9] = AF-group, nintedanib background, males
# [10] = AF-group, pirfenidone background medication sub-group
# [11] = AF-group, pirfenidone background
smiles,measurement,setting,value
[O-][S@+]1CCc2nc(N3CCC(c4ncc(Cl)cn4)CC3)nc(NC3(CO)CCC3)c21 [Comp. of form. III],"SAE: Condition aggravated, patients n",[1],2
same,"SAE: General disorders and administration side conditions, bracketed fatal event [ ]*, patients %",[1],(2.1)]* %
same,"SAE: General disorders and administration side conditions, bracketed fatal event [ ]*, patients n",[1],[1
same,"SAE: General disorders and administration side conditions, patients %",[1],(4.1) %
same,"SAE: General disorders and administration side conditions, patients n",[1],2
same,"SAE: Nervous system disorders, patients %",[1],(2.0) %
same,"SAE: Nervous system disorders, patients n",[1],1
same,"SAE: Peripheral nerve paresis, patients %",[1],(2.0) %
same,"SAE: Peripheral nerve paresis, patients n",[1],1
same,"SAE: Vascular disorders, patients %",[1],(2.0) %
same,"SAE: Vascular disorders, patients n",[1],1
same,"SAE: Vasculitis (fatal event), patients %",[1],(2.0)* %
same,"SAE: Vasculitis (fatal event), patients n",[1],1
same,"Serious AEs (patients with ≥1 SAE), patients %",[1],(6.1) %
same,"Serious AEs (patients with ≥1 SAE), patients n",[1],3
same,"Severe AEs, patients %",[1],(4.1) %
same,"Severe AEs, patients n",[1],2
same,"AE: Diarrhoea, patients %","AF-group (antifibrotic background), listed as Comp. of Form. III",30.6%
same,"AE: Diarrhoea, patients %",[2],(30.6) %
same,"AE: Gastrointestinal disorders, patients %",[2],(36.7) %
same,"Any AE, patients %",[2],(73.5) %
same,"AE: Diarrhoea, patients %",[3],30.6%
same,"Any AE, patients %",[3],73.5%
same,"AE: Diarrhoea, patients %",[4],46.2%
same,"AE: gastrointestinal disorder, patients %",[4],46.2%
same,"Dyspepsia leading to discontinuation of trial treatment, patients %",[5],(3.8) %
same,"Dyspepsia leading to discontinuation of trial treatment, patients n",[5],1
same,"Gastrointestinal disorders leading to discontinuation of trial treatment, patients n",[5],4
same,"Patients with AEs leading to discontinuation of the trial drug, %",[5],26.9%
same,"Patients with any AE, %",[5],80.8%
same,"Patients with investigator defined drug related AEs, %",[5],46.2%
same,"Patients with other significant AEs, %",[5],26.9%
same,"Patients with pre-specified AEs of special interest, %",[5],0%
same,"Patients with serious AEs, %",[5],3.8%
same,"Patients with severe AEs, %",[5],3.8%
same,"Serious AEs: Congenital anomaly/birth defect, %",[5],0%
same,"Serious AEs: Immediately life threatening, %",[5],0%
same,"Serious AEs: Other comparable medical criteria, %",[5],0%
same,"Serious AEs: Persistent or significant disability, %",[5],0%
same,"Serious AEs: Requires or prolongs hospitalization, %",[5],3.8%
same,"Serious AEs: Results in Death, %",[5],0%
same,"Diarrhoea leading to discontinuation of trial treatment, patients %",[6],(11.5) %
same,"Diarrhoea leading to discontinuation of trial treatment, patients n",[6],3
same,"Gastrointestinal disorders leading to discontinuation of trial treatment, patients %",[6],(15.4) %
same,"Diarrhoea leading to discontinuation of trial treatment, patients n",[7],3
same,"Gastrointestinal disorders leading to discontinuation of trial treatment, patients %",[7],15.4%
same,"Diarrhoea leading to discontinuation of trial treatment, patients %",[8],11.5%
same,"Gastrointestinal disorders leading to discontinuation of trial treatment, patients %",[8],15.4%
same,"Moderate cases of diarrhoea, %",[9],2.1%
same,"Severe case of diarrhoea, %",[9],1.0%
same,"AE: Diarrhoea, patients %",[10],13.0%
same,"AE: gastrointestinal disorder, patients %",[10],26.1%
same,"Patients with AEs leading to discontinuation of the trial drug, %",[11],13.0%
same,"Patients with any AE, %",[11],65.2%
same,"Patients with investigator defined drug related AEs, %",[11],26.1%
same,"Patients with other significant AEs, %",[11],4.3%
same,"Patients with pre-specified AEs of special interest, %",[11],4.3%
same,"Patients with serious AEs, %",[11],8.7%
same,"Patients with severe AEs, %",[11],4.3%
same,"Serious AEs: Congenital anomaly/birth defect, %",[11],0%
same,"Serious AEs: Immediately life threatening, %",[11],0%
same,"Serious AEs: Other comparable medical criteria, %",[11],0%
same,"Serious AEs: Persistent or significant disability, %",[11],0%
same,"Serious AEs: Requires or prolongs hospitalization, %",[11],8.7%
same,"Serious AEs: Results in Death, %",[11],4.3%
same,"Gastrointestinal disorders leading to discontinuation of trial treatment, patients (in words)","AF-group, pirfenidone background, listed as active agent",not a single patient
same,"Gastrointestinal disorders leading to discontinuation of trial treatment, patients (in words)","AF-group, pirfenidone background, listed as compound of formula III",no discontinuations of the trial treatment at all
same,"AE resulting in death, patients %",Non-AF+AF total,(2.1) %
same,"AE resulting in death, patients n",Non-AF+AF total,2
same,"AE: Abdominal pain, patients %",Non-AF+AF total,(2.1) %
same,"AE: Abdominal pain, patients n",Non-AF+AF total,2
same,"AE: Arthralgia, patients %",Non-AF+AF total,(2.1) %
same,"AE: Arthralgia, patients n",Non-AF+AF total,2
same,"AE: Asthenia, patients %",Non-AF+AF total,(4.1) %
same,"AE: Asthenia, patients n",Non-AF+AF total,4
same,"AE: Bronchitis, patients %",Non-AF+AF total,(2.1) %
same,"AE: Bronchitis, patients n",Non-AF+AF total,2
same,"AE: Condition aggravated, patients %",Non-AF+AF total,(2.1) %
same,"AE: Condition aggravated, patients n",Non-AF+AF total,2
same,"AE: Constipation, patients %",Non-AF+AF total,(2.1) %
same,"AE: Constipation, patients n",Non-AF+AF total,2
same,"AE: Cough, patients %",Non-AF+AF total,(7.2) %
same,"AE: Cough, patients n",Non-AF+AF total,7
same,"AE: Decreased appetite, patients %",Non-AF+AF total,(3.1) %
same,"AE: Decreased appetite, patients n",Non-AF+AF total,3
same,"AE: Diarrhoea, patients %",Non-AF+AF total,(23.7) %
same,"AE: Diarrhoea, patients n",Non-AF+AF total,23
same,"AE: Dizziness, patients %",Non-AF+AF total,(2.1) %
same,"AE: Dizziness, patients n",Non-AF+AF total,2
same,"AE: Dyspepsia, patients %",Non-AF+AF total,(5.2) %
same,"AE: Dyspepsia, patients n",Non-AF+AF total,5
same,"AE: Dyspnoea, patients %",Non-AF+AF total,(3.1) %
same,"AE: Dyspnoea, patients n",Non-AF+AF total,3
same,"AE: Fatigue, patients %",Non-AF+AF total,(3.1) %
same,"AE: Fatigue, patients n",Non-AF+AF total,3
same,"AE: Flatulence, patients %",Non-AF+AF total,(5.2) %
same,"AE: Flatulence, patients n",Non-AF+AF total,5
same,"AE: Gastrointestinal disorders, patients %",Non-AF+AF total,(32.0) %
same,"AE: Gastrointestinal disorders, patients n",Non-AF+AF total,31
same,"AE: General disorders and administration site conditions, patients %",Non-AF+AF total,(16.5) %
same,"AE: General disorders and administration site conditions, patients n",Non-AF+AF total,16
same,"AE: Headache, patients %",Non-AF+AF total,(6.2) %
same,"AE: Headache, patients n",Non-AF+AF total,6
same,"AE: Infections and infestations, patients %",Non-AF+AF total,(14.4) %
same,"AE: Infections and infestations, patients n",Non-AF+AF total,14
same,"AE: Investigations, patients %",Non-AF+AF total,(15.5) %
same,"AE: Investigations, patients n",Non-AF+AF total,15
same,"AE: Metabolism and nutrition disorders, patients %",Non-AF+AF total,(4.1) %
